The results in this text go back to ChEMBL document CHEMBL2150898, “Discovery of AM-1638: A Potent and Orally Bioavailable GPR40/FFA1 Full Agonist” (ACS Med Chem Lett, 2012).

Data set [1] addresses T1, Free fatty acid receptor 1 (Homo sapiens, UniProt O14842). The experiment in a line: Agonist activity at GPR40 expressed in CHO cells after 20 seconds by aequorin bioluminescence assay in presence of 100 % human serum. The data set is classed as functional, cell-based.
In data set [2] the target is T1, Free fatty acid receptor 1. The data set can be described thus: Agonist activity at GPR40 expressed in CHO cells after 20 seconds by aequorin bioluminescence assay in presence of 0.1 % human serum. The data set is classed as functional, cell-based.
In data set [3] the target is T1, Free fatty acid receptor 1. The experiment in a line: Agonist activity at GPR40 expressed in CHO cells assessed as intrinsic efficacy after 20 seconds by aequorin bioluminescence assay in presence of 0.1 % human serum relative to AM-1638. The data set is classed as functional, cell-based.
Data set [4] can be described thus: Cmax in rat at 2 mg/kg, po. The data set is classed as ADME, organism-based. Also on record: dose 2 mg/kg, route oral. The note with it: in vivo.
Data set [5] relates to Mus musculus. The data set can be described thus: Antidiabetic activity in DIO BDF mouse model assessed as increase in plasma insulin level at 60 mg/kg, po administered 1 hr prior glucose-challenge challenge measured after 1 hr by ELISA. The data set is classed as functional, organism-based. On the set-up: dose 60 mg/kg.
A short description of data set [6]: Clearance in cynomolgus monkey at 2 mg/kg, po and 0.5 mg/kg, iv. In kind it is ADME, organism-based, Macaca fascicularis. The note with it: in vivo.
The nature of data set [7]: Clearance in mouse at 5 mg/kg, po and 1 mg/kg, iv. The data set is classed as ADME, organism-based. The conditions noted are these: in vivo.
A short description of data set [8]: Half life in mouse at 1 mg/kg, iv. In kind it is ADME, organism-based. Also on record: dose 1 mg/kg, route intravenous. The conditions noted are these: in vivo.
Data set [9] is described as follows: Oral bioavailability in cynomolgus monkey at 2 mg/kg. The note with it: in vivo. The data set is classed as ADME, organism-based, Macaca fascicularis.
Data set [10] concerns Mus musculus. The data set can be described thus: Antidiabetic activity in DIO BDF mouse model assessed as increase in insulin AUC at 60 mg/kg, po administered 1 hr prior glucose-challenge challenge measured after 1 hr by ELISA. The data set is classed as functional, organism-based. Also on record: dose 60 mg/kg. A general note: An ELISA detects its analyte on a solid surface through an enzyme-linked reagent.

Data set [11] can be described thus: Clearance in rat at 2 mg/kg, po and 0.5 mg/kg, iv. The conditions noted are these: in vivo. In kind it is ADME, organism-based.
The nature of data set [12]: Half life in cynomolgus monkey at 0.5 mg/kg, iv. The data set is classed as ADME, organism-based, Macaca fascicularis. Also on record: dose 0.5 mg/kg, route intravenous. The conditions noted are these: in vivo.
Data set [13] in a line: Tmax in rat at 2 mg/kg, po and 0.5 mg/kg, iv. The conditions noted are these: in vivo. In kind it is ADME, organism-based.
Data set [14] in a line: Half life in rat at 0.5 mg/kg, iv. In kind it is ADME, organism-based. On the set-up: dose 0.5 mg/kg, route intravenous. The note with it: in vivo.
Data set [15] is described as follows: Oral bioavailability in mouse at 5 mg/kg. The note with it: in vivo. In kind it is ADME, organism-based.
The subject of data set [16] is Mus musculus. The experiment in a line: Antidiabetic activity in DIO BDF mouse model assessed as reduction in blood glucose-challenge excursion at 60 mg/kg, po administered 1 hr prior glucose-challenge challenge measured after 1 hr by OGTT ( Rvb = 462 mg/dl ). The data set is classed as functional.
Data set [17] is described as follows: Oral bioavailability in rat at 2 mg/kg. The data set is classed as ADME, organism-based. The note with it: in vivo.
Data set [18] is described as follows: Cmax in mouse at 5 mg/kg, po. In kind it is ADME, organism-based. The conditions noted are these: in vivo. On the set-up: dose 5 mg/kg, route oral.
Data set [19] is described as follows: Tmax in mouse at 5 mg/kg, po and 1 mg/kg, iv. The conditions noted are these: in vivo. The data set is classed as ADME, organism-based.
The subject of data set [20] is Mus musculus. The experiment in a line: Antidiabetic activity in DIO BDF mouse model assessed as improvement in glucose-challenge AUC(0 to 60 mins) at 60 mg/kg, po administered 1 hr prior glucose-challenge challenge measured after 1 hr by OGTT. In kind it is functional.
The nature of data set [21]: Cmax in cynomolgus monkey at 2 mg/kg, po. The data set is classed as ADME, organism-based, Macaca fascicularis. Also on record: dose 2 mg/kg, route oral. The note with it: in vivo.
A short description of data set [22]: Tmax in cynomolgus monkey at 2 mg/kg, po and 0.5 mg/kg, iv. In kind it is ADME, organism-based, Macaca fascicularis. The note with it: in vivo.

The source made the active and inactive calls.

T1 sequence (O14842 whole entry): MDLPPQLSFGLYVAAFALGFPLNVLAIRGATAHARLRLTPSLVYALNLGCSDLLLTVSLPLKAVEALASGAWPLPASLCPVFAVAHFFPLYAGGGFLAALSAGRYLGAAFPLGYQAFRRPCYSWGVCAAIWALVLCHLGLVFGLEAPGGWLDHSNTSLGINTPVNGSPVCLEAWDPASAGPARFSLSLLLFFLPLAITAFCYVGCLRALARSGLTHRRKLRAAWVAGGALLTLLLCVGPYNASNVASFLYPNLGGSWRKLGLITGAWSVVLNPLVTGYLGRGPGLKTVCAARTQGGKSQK

For orientation: EC50 means the concentration giving half of the maximal effect. For `COc1ccc(F)c(-c2ccc(COc3cccc([C@H](CC(=O)O)C4CC4)c3)cc2C2=CCCC2(C)C)c1`, the concentration for a half-maximal effect (EC50) in data set [1] came out at 34000 nM; in data set [2] it was 1100 nM. The Efficacy in [3] came out at 76%.
`COc1ccc(F)c(-c2ccc(COc3cccc([C@@H](CC(=O)O)C4CC4)c3)cc2C(C)(C)C)c1`: the EC50 in data set [1] worked out at 1900 nM; in data set [2], 370 nM. For the same molecule, in data set [3], the Efficacy came out at 103%.
Turning to `CC#C[C@H](CC(=O)O)c1ccc(OCc2ccc(-c3cccc(OC)c3)cc2)cc1`, the EC50 in [2] was determined as 4000 nM. For the same molecule, the Efficacy in [3] stood at 99%.
For `CC#C[C@@H](CC(=O)O)c1ccc(OCc2ccc(-c3cccc(OC)c3)cc2)cc1`, the EC50 in data set [2] is 650 nM. Also, the Efficacy in [3] is 47%.
Taken in the same sequence, the figures for `CC#CC(CC(=O)O)c1ccc(OCc2ccc(-c3cccc(OC)c3)cc2)cc1` (racemic) were 2300 nM and 98%.
On to `COc1ccc(F)c(-c2ccc(COc3cccc([C@@H](CC(=O)O)C4CC4)c3)cc2)c1`, for which the results for the EC50 in [1] and in [2] were 38000 nM and 480 nM, respectively. Also, in [3], the Efficacy is 107%.
For `COc1ccc(F)c(-c2ccc(COc3cccc([C@@H](CC(=O)O)C4CCC4)c3)cc2C(C)(C)C)c1`, in data set [2], the EC50 amounted to 420 nM. Besides, the Efficacy in data set [3] is 106%.
Take `COc1ccc(F)c(-c2ccc(COc3cccc([C@@H](CC(=O)O)c4ccccc4)c3)cc2C(C)(C)C)c1`: the EC50 in data set [2] was determined as 1200 nM. In [3], the Efficacy was 80%.
For `COc1ccc(F)c(-c2ccc(COc3ccc(CCC(=O)O)cc3)cc2)c1` the same measures were 1900 nM and 96%.
For `COc1ccc(F)c(-c2ccc(COc3cccc(CCC(=O)O)c3)cc2C(C)(C)C)c1` the same measures were 900 nM and 100%.
As to `COc1ccc(F)c(-c2ccc(COc3cccc([C@@H](CC(=O)O)C4CCCC4)c3)cc2C(C)(C)C)c1`, the EC50 in [2] was 1310 nM. Besides, in [3], the Efficacy is 59%.
`CCC[C@H](CC(=O)O)c1cccc(OCc2ccc(-c3cc(OC)ccc3F)c(C(C)(C)C)c2)c1`: the EC50 in [2] stood at 690 nM. In addition, the Efficacy in data set [3] came to 94%.
For `COc1ccc(F)c(-c2ccc(COc3cccc([C@H](C)CC(=O)O)c3)cc2C(C)(C)C)c1` the same measures were 770 nM and 107%.
For `CC/C=C\C/C=C\C/C=C\C/C=C\C/C=C\C/C=C\CCC(=O)O` [DOCONEXENT] the same measures were 36000 nM and 67%.
For `COc1ccc(F)c(-c2ccc(COc3cccc(CCC(=O)O)c3)cc2)c1`, the half-maximal effective concentration (EC50) in data set [2] stood at 1200 nM. The Efficacy in [3] amounted to 104%.
As for `CC#CC(CC(=O)O)c1ccc(OCc2ccc(-c3ccccc3)cc2)cc1` (racemic), the EC50 in data set [2] turned out to be 7700 nM. Besides, the Efficacy in data set [3] is 105%.
Usually Cmax stands for the maximum level reached in the sampled fluid or tissue. Usually half-life stands for the time needed for the level to fall by half in the phase considered. In general, bioavailability refers to the share of a dose that reaches the circulation, judged against a reference dose that is usually intravenous. Usually Tmax stands for the time from dosing to the highest level. For the molecule `COc1ccc(F)c(-c2ccc(COc3cccc([C@@H](CC(=O)O)C4CC4)c3)cc2C2=CCCC2(C)C)c1`, the Cmax in [4] was found to be 3.6 µM; in data set [18] it was 14 µM; in [21], 5.1 µM. Moreover, the result in data set [5] and in [10] was Active. Besides, the clearance is 13.5 mL/min/kg in [6], 3 mL/min/kg in data set [7] and 15.2 mL/min/kg in data set [11]. For the same molecule, the figures for the half-life in [8], in data set [12] and in data set [14] were 2 h, 2.1 h and 1.8 h, respectively. For the same molecule, the bioavailability in [9] was 71%; in data set [15], greater than 100%; in data set [17], 72%. Moreover, the Tmax in data set [13] came to 3.5 h; in data set [19] it was 1 h; in [22], 2 h. Moreover, the EC50 in [1] is 710 nM. In addition, the results for the Activity in data set [16] and in data set [20] were 204 mg/dL and 46%, respectively.
For the molecule `COc1ccc(F)c(-c2ccc(COc3cccc([C@@H](CC(=O)O)C(C)C)c3)cc2C(C)(C)C)c1`, in [2], the EC50 came to 2200 nM. For the same molecule, the Efficacy in data set [3] amounted to 86%.
With `CC#C[C@H](CC(=O)O)c1ccc(OCc2ccc(-c3cc(OC)ccc3F)cc2)cc1`, the EC50 in data set [2] is 2300 nM. In data set [3], the Efficacy is 97%.
Turning to `COc1ccc(F)c(-c2ccc(COc3cccc([C@@H](CC(=O)O)C(F)(F)F)c3)cc2C(C)(C)C)c1`, the 50% effective concentration (EC50) in [2] was 2100 nM. Also, in data set [3], the Efficacy was determined as 111%.
Taken in the same sequence, the figures for `CC[C@H](CC(=O)O)c1cccc(OCc2ccc(-c3cc(OC)ccc3F)c(C(C)(C)C)c2)c1` were 680 nM and 110%.
On to `COc1ccc(F)c(-c2ccc(COc3cccc([C@@H](CC(=O)O)C4CCCCC4)c3)cc2C(C)(C)C)c1`, for which the EC50 in data set [2] was determined as 2100 nM. Moreover, in data set [3], the Efficacy was 41%.
Consider `CC#C[C@@H](CC(=O)O)c1ccc(OCc2cccc(-c3ccc(C(F)(F)F)cc3)c2)cc1`, for which the result in data set [5] was inactive. The Activity worked out at 317 mg/dL in data set [16] and 34% in data set [20].
